Data reported in US20220235057A1, “CYCLIC FORMYL AND CYCLIC KETONE COMPOUNDS, PREPARATION METHOD THEREFOR, AND PHARMACEUTICAL USE” (priority 2019, published 2022).
Values after ≈ are worked out from the molar mass of the structure shown.

Columns and labels:
Format in all cases: cell-based
[1] = system: drug resistant strains of Acinetobacter baumannii; assay: anti-drug resistant strains of Acinetobacter baumannii (MIC)
Zika virus (ZIKV) = assay: anti-Zika virus activity (inhibition rate); conditions: for inhibition at 11 µM / inhibition at 33 µM: Zika virus
Usutu virus (USUV) = assay: anti-Usutu virus activity (inhibition rate); conditions: for inhibition at 11 µM / inhibition at 33 µM: Usutu virus
[2] = resistant strain of Acinetobacter baumannii no. 17
[3] = resistant strain of Acinetobacter baumannii no. 18
[4] = resistant strain of Acinetobacter baumannii no. 19
[5] = resistant strain of Acinetobacter baumannii no. 20

In the case of O=C(NNc1ccc(F)cc1)C1CNc2ccccc21 (stereo not drawn) [ZBM-11], the MIC [1, 2] is reported as 1 µg/mL (≈ 3.69 µM), the MIC [1, 3] is reported as 2 µg/mL (≈ 7.37 µM) and the MIC [1, 4] is reported as 1 µg/mL (≈ 3.69 µM). It also gave an MIC [1, 5] of 1 µg/mL (≈ 3.69 µM).

With O=C(NNc1ccccc1)c1c[nH]c2ccccc12 [ZFD-38] the MIC [1, 2] was 8 µg/mL (≈ 31.8 µM), the MIC [1, 3] was 8 µg/mL (≈ 31.8 µM) and the MIC [1, 4] was 8 µg/mL (≈ 31.8 µM). It also gave an MIC [1, 5] of 4 µg/mL (≈ 15.9 µM).

Molecule O=C(NNc1ccc(F)cc1)[C@@H]1Cc2ccccc2N1 [ZBM-5] has an MIC [1, 2] of 2 µg/mL (≈ 7.37 µM), an MIC [1, 3] of 2 µg/mL (≈ 7.37 µM) and an MIC [1, 4] of 1 µg/mL (≈ 3.69 µM). For the same molecule, the MIC [1, 5] was 2 µg/mL (≈ 7.37 µM).

O=C(NNc1ccc(OCc2ccccc2)cc1)[C@@H]1Cc2ccccc2N1 [ZBM-6] was tested, and the MIC [1, 2] was 2 µg/mL (≈ 5.56 µM), the MIC [1, 3] was 4 µg/mL (≈ 11.1 µM) and the MIC [1, 4] was 2 µg/mL (≈ 5.56 µM). The MIC [1, 5] was 4 µg/mL (≈ 11.1 µM).

O=C(NNc1ccccc1)[C@@H]1Cc2ccccc2N1 [ZDL-101] was tested, and the MIC [1, 2] was 4 µg/mL (≈ 15.8 µM), the MIC [1, 3] was 4 µg/mL (≈ 15.8 µM) and the MIC [1, 4] was 4 µg/mL (≈ 15.8 µM). The MIC [1, 5] was 2 µg/mL (≈ 7.9 µM).

Molecule O=C(NNc1ccccc1)c1ccc[nH]1 [ZFD-42] has an MIC [1, 2] of 4 µg/mL (≈ 19.9 µM), an MIC [1, 3] of 4 µg/mL (≈ 19.9 µM) and an MIC [1, 4] of 4 µg/mL (≈ 19.9 µM). For the same molecule, the MIC [1, 5] was 1 µg/mL (≈ 4.97 µM).

For O=C(NNc1ccc(F)cc1)c1c[nH]c2ccccc12 [ZBM-20], the MIC [1, 2] was 0.5 µg/mL (≈ 1.86 µM), the MIC [1, 3] was 1 µg/mL (≈ 3.71 µM) and the MIC [1, 4] was 0.5 µg/mL (≈ 1.86 µM). The MIC [1, 5] was 0.5 µg/mL (≈ 1.86 µM).

With O=C(NNc1ccccc1)C1CCCCN1 (stereo not drawn) [ZXD-2-1] the MIC [1, 2] was 4 µg/mL (≈ 18.2 µM), the MIC [1, 3] was 4 µg/mL (≈ 18.2 µM) and the MIC [1, 4] was 8 µg/mL (≈ 36.5 µM). It also gave an MIC [1, 5] of 4 µg/mL (≈ 18.2 µM).

CC(C)(C)[Si](C)(C)OCc1ccc(C2N(Nc3ccccc3)C(=O)C3CCc4ccccc4N32)cc1 (stereo not drawn) [ZXD-156B] gave an inhibition at 11 µM (Zika virus (ZIKV); Drug concentration 11 μM) greater than 100% and an inhibition at 11 µM (Usutu virus (USUV); Drug concentration 11 μM) greater than 100%.

O=C1[C@@H]2CCc3ccccc3N2C(c2ccc([N+](=O)[O-])c(O)c2)N1Nc1ccccc1 (stereo partly drawn) [ZXD-95] was tested, and the inhibition at 11 µM (Zika virus (ZIKV); Drug concentration 11 μM) was 0 to 100%, the inhibition at 11 µM (Usutu virus (USUV); Drug concentration 11 μM) was less than 0% and the inhibition at 33 µM (Usutu virus (USUV); Drug concentration 33 μM) was 0 to 100%.

In the case of COc1ccc(C2N(c3ccc([N+](=O)[O-])cc3)C(=O)[C@@H]3Cc4ccccc4CN23)cc1OC (stereo partly drawn) [ZSD-12B], the inhibition at 11 µM (Zika virus (ZIKV); Drug concentration 11 μM) is reported as less than 0%, the inhibition at 33 µM (Zika virus (ZIKV); Drug concentration 33 μM) is reported as less than 0% and the inhibition at 11 µM (Usutu virus (USUV); Drug concentration 11 μM) is reported as less than 0%. The inhibition at 33 µM (Usutu virus (USUV); Drug concentration 33 μM) was 0 to 100%.

COc1cc([C@H]2N(Nc3ccccc3)C(=O)[C@@H]3Cc4ccccc4N32)ccc1O [ZDL-21] was tested, and the inhibition at 11 µM (Zika virus (ZIKV); Drug concentration 11 μM) was less than 0%, the inhibition at 33 µM (Zika virus (ZIKV); Drug concentration 33 μM) was 0 to 100% and the inhibition at 11 µM (Usutu virus (USUV); Drug concentration 11 μM) was less than 0%. The inhibition at 33 µM (Usutu virus (USUV); Drug concentration 33 μM) was less than 0%.

For O=C1C2CCc3ccccc3N2[C@@H](c2cc3ccccc3s2)N1Nc1ccccc1 (stereo partly drawn) [ZXD-178B], the inhibition at 11 µM (Zika virus (ZIKV); Drug concentration 11 μM) was greater than 100% and the inhibition at 11 µM (Usutu virus (USUV); Drug concentration 11 μM) was 0 to 100%.

COc1cc(C2N(c3ccc([N+](=O)[O-])cc3)C(=O)[C@@H]3Cc4ccccc4CN23)ccc1O (stereo partly drawn) [ZSD-8] gave an inhibition at 11 µM (Zika virus (ZIKV); Drug concentration 11 μM) of 0 to 100%, an inhibition at 33 µM (Zika virus (ZIKV); Drug concentration 33 μM) greater than 100% and an inhibition at 11 µM (Usutu virus (USUV); Drug concentration 11 μM) of less than 0%. For the same molecule, the inhibition at 33 µM (Usutu virus (USUV); Drug concentration 33 μM) was less than 0%.

Molecule O=C1[C@@H]2Cc3ccccc3CN2C(c2ccc([N+](=O)[O-])cc2)N1Nc1ccccc1 (stereo partly drawn) [ZSD-18] has an inhibition at 11 µM (Zika virus (ZIKV); Drug concentration 11 μM) of less than 0%, an inhibition at 33 µM (Zika virus (ZIKV); Drug concentration 33 μM) of 0 to 100% and an inhibition at 11 µM (Usutu virus (USUV); Drug concentration 11 μM) of less than 0%. It also gave an inhibition at 33 µM (Usutu virus (USUV); Drug concentration 33 μM) of 0 to 100%.

In the case of O=C1[C@@H]2Cc3ccccc3CN2C(Cc2ccc(O)c(O)c2)N1Nc1ccccc1 (stereo partly drawn) [ZSD-36], the “Anti-ZIKV activity (inhibition rate)” value (Zika virus (ZIKV); Drug concentration 11 μM) is reported as “− (−: Inactive)”, the “Anti-ZIKV activity (inhibition rate)” value (Zika virus (ZIKV); Drug concentration 33 μM) is reported as “− (−: Inactive)” and the “Anti-USUV activity (inhibition rate)” value (Usutu virus (USUV); Drug concentration 11 μM) is reported as “− (−: Inactive)”. For the same molecule, the “Anti-USUV activity (inhibition rate)” value (Usutu virus (USUV); Drug concentration 33 μM) was “+ (+: Partial suppression)”.

For O=C1[C@@H]2Cc3ccccc3CN2C(c2ccc(O)cc2)N1Nc1ccccc1 (stereo partly drawn) [ZSD-20], the “Anti-ZIKV activity (inhibition rate)” value (Zika virus (ZIKV); Drug concentration 11 μM) was “− (−: Inactive)”, the “Anti-ZIKV activity (inhibition rate)” value (Zika virus (ZIKV); Drug concentration 33 μM) was “+++ (+++: Complete suppression)” and the “Anti-USUV activity (inhibition rate)” value (Usutu virus (USUV); Drug concentration 11 μM) was “− (−: Inactive)”. For the same molecule, the “Anti-USUV activity (inhibition rate)” value (Usutu virus (USUV); Drug concentration 33 μM) was “+ (+: Partial suppression)”.

O=C(Nc1ccc([N+](=O)[O-])cc1)C1CCc2ccccc2N1C(=O)O (stereo not drawn) [ZXD-62] was tested, and the “Anti-ZIKV activity (inhibition rate)” value (Zika virus (ZIKV); Drug concentration 11 μM) was “− (−: Inactive)”, the “Anti-ZIKV activity (inhibition rate)” value (Zika virus (ZIKV); Drug concentration 33 μM) was “+++ (+++: Complete suppression)” and the “Anti-USUV activity (inhibition rate)” value (Usutu virus (USUV); Drug concentration 11 μM) was “− (−: Inactive)”. The “Anti-USUV activity (inhibition rate)” value (Usutu virus (USUV); Drug concentration 33 μM) was “+ (+: Partial suppression)”.

O=C1C2CCCC2C(c2ccccc2)N1c1ccccc1 (stereo not drawn) [ZDL-60] was tested, and the inhibition at 11 µM (Zika virus (ZIKV); Drug concentration 11 μM) was less than 0%, the inhibition at 33 µM (Zika virus (ZIKV); Drug concentration 33 μM) was 0 to 100% and the inhibition at 11 µM (Usutu virus (USUV); Drug concentration 11 μM) was less than 0%. It also gave an inhibition at 33 µM (Usutu virus (USUV); Drug concentration 33 μM) of 0 to 100%.

O=C1C2CCCC2C(c2ccc(Cl)cc2)N1c1ccccc1 (stereo not drawn) [ZDL-62] gave an inhibition at 11 µM (Zika virus (ZIKV); Drug concentration 11 μM) of less than 0%, an inhibition at 33 µM (Zika virus (ZIKV); Drug concentration 33 μM) of 0 to 100% and an inhibition at 11 µM (Usutu virus (USUV); Drug concentration 11 μM) of less than 0%. For the same molecule, the inhibition at 33 µM (Usutu virus (USUV); Drug concentration 33 μM) was greater than 100%.
